# The Deep4Chem optical property database
# Assay: photoluminescence quantum yield (fraction); solvent given as SMILES
smiles,measurement,setting,value
Cc1ccc2c(c1)C1(c3ccccc3Oc3ccccc31)c1cc(C)ccc1N2c1ccc(-c2nc(-c3ccccc3)cc(-c3ccccc3)n2)cc1,photoluminescence quantum yield,in O=P(c1ccccc1)(c1ccccc1)c1ccc2oc3ccc(P(=O)(c4ccccc4)c4ccccc4)cc3c2c1,0.69
Oc1ccc2ccccc2c1/C=N/CC/N=C/c1c(O)ccc2ccccc12,photoluminescence quantum yield,in CC#N,0.12
C(=C1c2ccccc2CCc2ccccc21)c1ccc(-c2ccc(C=C3c4ccccc4CCc4ccccc43)cc2)cc1,photoluminescence quantum yield,in C1CCOC1,0.0033
O=C1c2cccc3c(-n4c5ccccc5c5ccccc54)ccc(c23)C(=O)N1c1ccccc1,photoluminescence quantum yield,in C1CCOC1,0.032
same,photoluminescence quantum yield,in CCCCCC,0.887
same,photoluminescence quantum yield,in ClC(Cl)Cl,0.198
same,photoluminescence quantum yield,in ClCCl,0.032
Cc1ccc(-n2c3ccccc3c3cc(-c4ccc5[n+](c4)[B-](F)(F)n4c-5nc5c6ccccc6c6ccccc6c54)ccc32)cc1,photoluminescence quantum yield,in ClC(Cl)Cl,0.957
CC(C)(C)NC(=O)c1ccc(-c2ccccc2)c2ccc3c4ccccc4c4ccccc4c3c12,photoluminescence quantum yield,in ClCCl,0.08
COc1cc(-c2nc3c4cccnc4c4ncccc4c3[nH]2)c(OC)cc1/C=C/c1ccncc1,photoluminescence quantum yield,in C1CCOC1,0.79
same,photoluminescence quantum yield,in CC#N,0.48
same,photoluminescence quantum yield,in CN(C)C=O,0.59
same,photoluminescence quantum yield,in Cc1ccccc1,0.34
C[Si](C)(C)C#Cc1ccc2c3cccc4cccc(c5cccc1c52)c43,photoluminescence quantum yield,in C1CCCCC1,0.88
c1ccc2c(c1)[nH]c1ncccc12,photoluminescence quantum yield,in CC#N,0.47
same,photoluminescence quantum yield,in CCCCCC,0.31
CCCCCCCCCCCCOc1cc(C(=O)Nc2ccc(-c3ccc4c(c3)C(=O)c3ccccc3-4)cc2)cc(OCCCCCCCCCCCC)c1OCCCCCCCCCCCC,photoluminescence quantum yield,in C1CCOC1,0.04
c1ccc(-c2nc3c4ccccc4c4ccccc4c3n2-c2ccc(-c3nc4c5ccccc5c5ccccc5c4n3-c3ccccc3)cc2)cc1,photoluminescence quantum yield,in Cc1ccccc1,0.82
c1ccc(N2c3ccc4ccccc4c3-c3c4ccccc4cc[n+]3[B-]2(c2ccccc2)c2ccccc2)cc1,photoluminescence quantum yield,in Cc1ccccc1,0.17
COC(=O)[C@H](Cc1ccc2oc3c(c2c1)=CC1=C(c2ccc(OC)cc2)c2cc4c5cc(C[C@H](NC(=O)OC(C)(C)C)C(=O)OC)ccc5oc4n2[B-](F)(F)[N+]=31)NC(=O)OC(C)(C)C,photoluminescence quantum yield,in C1CCCCC1,0.81
same,photoluminescence quantum yield,in CCOC(C)=O,0.86
same,photoluminescence quantum yield,in CO,0.82
CC1=CC(C)=[N+]2C1=C(c1ccc(-c3ccc(OS(=O)(=O)c4ccc([N+](=O)[O-])cc4[N+](=O)[O-])cc3)s1)c1c(C)cc(C)n1[B-]2(F)F,photoluminescence quantum yield,in Cc1ccccc1,0.066
C[Si](C)(c1cccc2ccccc12)c1c2ccccc2cc2ccccc12,photoluminescence quantum yield,in C1CCCCC1,0.72
same,photoluminescence quantum yield,in CC#N,0.62
CC(C)(C)c1ccc(-c2c(-c3cccc(N(c4ccccc4)c4ccccc4)c3)c(C#N)c(-c3cccc(N(c4ccccc4)c4ccccc4)c3)c(-c3ccc(C(C)(C)C)cc3)c2-c2ccc(C(C)(C)C)cc2)cc1,photoluminescence quantum yield,in C1CCOC1,0.072
CCOCCOCCOC(=O)/C=C/C1=CC2=C(c3c(C)cc(C)cc3C)c3cc(/C=C/C(=O)OCCOCCOCC)cn3[B-](F)(F)[N+]2=C1,photoluminescence quantum yield,in ClCCl,0.34
COc1ccccc1-c1cc2c(o1)=CC1=Cc3cc4oc(-c5ccccc5OC)cc4n3[B-](F)(F)[N+]=21,photoluminescence quantum yield,in ClC(Cl)Cl,0.91
CN(C)c1ccc(-c2cc(-c3ccccc3)nn2C)cc1,photoluminescence quantum yield,in ClCCl,0.06
CC[n+]1c(C=C2C(=O)C(C=C3Sc4cc(Cl)ccc4N3C)=C2[O-])[se]c2ccccc21,photoluminescence quantum yield,in CC(C)O,0.17
Cc1cc2c(o1)=CC1=Cc3cc4oc(C)cc4n3[B-](F)(F)[N+]=21,photoluminescence quantum yield,in C1CCOC1,0.93
same,photoluminescence quantum yield,in CC#N,0.95
same,photoluminescence quantum yield,in CCO,0.97
same,photoluminescence quantum yield,in CO,0.96
same,photoluminescence quantum yield,in Cc1ccccc1,0.94
same,photoluminescence quantum yield,in ClC(Cl)Cl,0.96
COc1cc(OC)cc(C2=CC(c3ccccc3)=C(c3ccccc3)C2)c1,photoluminescence quantum yield,in ClCCl,0.0361
Cc1ccc(-c2ccc(-c3ccc(C)cc3)c(/C(=C(/c3ccccc3)c3cc(-c4ccc(C)cc4)ccc3-c3ccc(C)cc3)c3ccccc3)c2)cc1,photoluminescence quantum yield,in C1CCOC1,0.32
CC1(C)c2ccccc2N(c2ccc(-c3nc4cc(C#N)c(C#N)cc4nc3-c3ccc(N4c5ccccc5C(C)(C)c5ccccc54)cc3)cc2)c2ccccc21,photoluminescence quantum yield,in Cc1ccccc1,0.91
